pIC50: −log10 of the molar value. Like-named read-outs stand apart in the source and are kept apart here.
What was measured:
[1] = biological target: T1, Phospholipase A2 (PLA2) (Rattus norvegicus, UniProt P14423); assay: In Vitro Assay for Inhibitors of Phospholipase A2 (PLA2), rat platelets (Protocol II); format: biochemical
T1 construct: The PLA2 employed in this screen is obtained by aggregation of purified rat platelets; from tissue; host or cells: purified rat platelets, enzyme obtained by aggregation
T1 sequence (P14423 22-146): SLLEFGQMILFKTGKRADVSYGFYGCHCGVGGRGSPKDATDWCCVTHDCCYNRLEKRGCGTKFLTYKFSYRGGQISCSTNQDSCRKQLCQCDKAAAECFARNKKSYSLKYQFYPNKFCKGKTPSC
Source text: An assay has been developed to test the ability of the invented compounds on the activity of the phospholipases. The following protocol describes a means for testing the inhibitory effect of these compounds on Phospholipase A2 (PLA2).
In Vitro Assay for Inhibitors of Phospholipase A2 Assayed at pH 7.0 (PLA2)
The PLA2 employed in this screen is obtained by aggregation of purified rat platelets. In the enzyme assay phosphatidylcholine having ^14 C-labeled palmitate residues at R1 and R2 is employed as substrate. PLA2 acts by cleaving the R2 fatty acid ester bond yielding free fatty acid and lysophosphatidylcholine as follows: [drawing 15]
Following completion of the reaction, the assay medium is acidified and extracted with hexane, which takes up unreacted substrate and free fatty acid product. The hexane extract is passed over a short silica column which retains 99% of the phosphatidylcholine. The ^14 C-labeled palmitic acid is not retained (90% recovery in eluate) and is collected directly in scintillation counting vials. The released palmitic acid is conveniently quantitated by liquid scintillation spectrometry.
The compounds were tested at 100 μM in a buffer containing 0.3 mM unlabeled phosphatidylcholine (PC), 20-30,000 cpm of ^14 C(CPC), […], 1 mM CaCl2 and 50 mM tris-HCl adjusted to pH 7.2 with 1N NaOH. […] The temperature of the buffer was maintained at a temperature of 37° C. The reaction was initiated by addition of the enzyme and it was terminated 30 minutes later by the addition of […] of 1N HCl.
Following acidification, the samples were extracted with 2 ml of 2-propanol and 2 ml of hexane, vortexed and allowed to stand until the phases separated. Free fatty acids (FFA) and some unreacted substrate were taken up in the isopropanol-saturated hexane. The hexane phase of the extraction mixture was transferred to a short silica gell column which retained reacted PC but not the FFA. The column effluent was collected directly in scintillation vials. The columns were washed once with an additional 2 ml of hexane. The radio labeled FFA were quantitated by liquid scintillation spectrometry.

[2] = biological target: T2, 5-Lipoxygenase (Rattus norvegicus, UniProt P12527); assay: Inhibition of 5-Lipoxygenase, rat PMN (Protocol 1); format: cell-based; conditions: rat neutrophils, 3 minutes at 30° C., 5-HETE formation; for pIC50: [14C]-arachidonic acid and Calcium Ionophore A23187, read-out: Lox, Rat PMN (I50); for Inhibition of 5-Lipoxygenase, Lox, Rat PMN (given as %): concentration not given
T2 construct: endogenous in cells; host or cells: rat neutrophils (PMN)
T2 sequence (P12527 1-673): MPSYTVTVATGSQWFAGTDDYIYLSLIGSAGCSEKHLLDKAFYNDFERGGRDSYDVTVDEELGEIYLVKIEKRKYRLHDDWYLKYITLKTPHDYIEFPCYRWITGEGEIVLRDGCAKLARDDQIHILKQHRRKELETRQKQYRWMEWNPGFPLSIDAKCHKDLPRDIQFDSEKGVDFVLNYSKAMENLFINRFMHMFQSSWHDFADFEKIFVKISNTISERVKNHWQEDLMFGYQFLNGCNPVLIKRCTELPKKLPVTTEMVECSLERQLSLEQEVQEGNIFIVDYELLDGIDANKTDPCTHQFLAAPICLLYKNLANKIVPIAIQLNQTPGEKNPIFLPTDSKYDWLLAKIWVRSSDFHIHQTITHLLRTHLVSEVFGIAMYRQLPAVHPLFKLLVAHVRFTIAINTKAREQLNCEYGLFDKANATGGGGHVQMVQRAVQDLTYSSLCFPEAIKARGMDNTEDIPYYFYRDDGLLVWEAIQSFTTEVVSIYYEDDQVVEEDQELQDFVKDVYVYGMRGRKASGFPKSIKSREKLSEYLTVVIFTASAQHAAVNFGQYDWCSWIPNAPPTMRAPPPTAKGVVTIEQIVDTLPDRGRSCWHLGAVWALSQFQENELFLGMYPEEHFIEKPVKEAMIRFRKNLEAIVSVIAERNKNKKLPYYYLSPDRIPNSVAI
Method: Protocol 1 describes an assay to detect inhibitors of the lipoxygenase pathway. Such inhibitors are believed to be capable of modulating the biosynthesis of the leukotrienes, a property believed to be useful in treating asthma and inflammatory disease states. A suspension of rat neutrophils in buffer is incubated for 3 minutes at 30° C. with [^14 C]-arachidonic acid (AA) and Calcium Ionophore A23187. Citric acid (2M) is used to quench the reaction. […] The organic layer is washed with dilute acid and an aliquot is transferred to glass tubes and dried. […] The 5-HETE spots are visulaized with iodine, cut out and placed in scintillation vials for counting. After adjusting for the extraction efficiency, the amount (pmole) of [^14 C]-5-HETE in each of the tubes is quantitated. The net pmoles of 5-HETE are obtained by subtracting the pmoles of 5-HETE in the tubes containing buffer alone (blank) from the pmoles of 5-HETE in the tubes containing buffer and cells (control).

[3] = rat platelets PLA2, phosphatidylcholine substrate, pH 7.2, 37° C., 30 minutes, read-out: PHOSPHOLIPASE A2 INHIBITION Activity (I50)

Compound	pIC50 [1, 3]	pIC50 [2]	further results
CC(=O)Nc1cccc(OC(=O)/C=C(C)/C=C/C=C(C)/C=C/C2=C(C)CCCC2(C)C)c1 [Example 2, 3-Acetamidophenyl Retinoate]	4.32	4.26	
CC1=C(/C=C/C(C)=C/C=C/C(C)=C/C(=O)O)C(C)(C)CCC1 [all trans retinoic acid, reference compound]		4.05	inhibition at 100 µM ([1]; at 100 μM, rat platelets PLA2, pH 7.2, 37° C., 30 minutes): 32%
CC(=O)Nc1ccc(SC(=O)/C=C(C)/C=C/C=C(C)/C=C/C2=C(C)CCCC2(C)C)cc1 [Example 3, Retinoic Acid 4-Acetamidophenyl Thioester]	4.47	5.64	
CC(=O)Nc1ccc(OC(=O)/C=C(C)/C=C/C=C(C)/C=C/C2=C(C)CCCC2(C)C)cc1 [Example 1, 4-Acetamidophenyl Retinoate]	4.25	4.25	
CCNC(=O)/C=C(C)/C=C/C=C(C)/C=C/c1c(C)cc(OC)c(C)c1C [Ro 11 - 1430, reference compound]			Inhibition of 5-Lipoxygenase, Lox, Rat PMN (given as %) [2]: -11 ± 19%
CC(=O)Nc1ccc(OC(=O)/C=C/C=C(C)/C=C/C=C(C)/C=C/C2=C(C)CCCC2(C)C)cc1 [Example 4, 4-Acetamidophenyl 5,9-dimethyl-11-(2,6,6-trimethyl-1-cyclohexen-1-yl)-2,4,6,8,10-undecapentaenoate]			pIC50 [1]: 4.77
CCOC(=O)/C=C(C)/C=C/C=C(C)/C=C/c1c(C)cc(OC)c(C)c1C [Ro 10 - 9359, reference compound]			Inhibition of 5-Lipoxygenase, Lox, Rat PMN (given as %) [2]: 10 ± 17%

Reference: US4595696A, “Polyene compounds useful in the treatment of allergic responses” (USV Pharmaceutical Corp., priority 1985, dated 1986)
